Here are results for 19 compounds from patent publication US10717716B2, “1,3,4-oxadiazole derivative compounds as histone deacetylase 6 inhibitor, and the pharmaceutical composition comprising the same” (Chong Kun Dang Pharmaceutical Corp., priority 2015, dated 2020).

One test deals with T1, human recombinant HDAC1 (Homo sapiens, UniProt Q13547).
T1 construct: purchased Enzo Life Science BML-SE456
As to the kind of experiment: HDAC1 enzyme activity inhibition assay (HDAC Fluorimetric Drug Discovery Kit). The test is classed as biochemical. The note with it: human recombinant HDAC1, Fluor de Lys substrate 10 μM, 30° C. 60 minutes. In short, it runs like this:
(§1)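 Fluorimetric deacetylase assay: 5-fold serial compound dilutions, 0.3 μg recombinant human enzyme (HDAC1 or HDAC6, same protocol), 10 μM Fluor de Lys-SIRT1 substrate, 60 min at 30 °C. Signal developed 30 min, measured at 360/460 nm; IC50 values derived.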

For another test, the target named is T2, human recombinant HDAC6 (Homo sapiens, UniProt Q9UBN7).
T2 construct: purchased Calbiochem 382180
T2 sequence (Q9UBN7 1-1215): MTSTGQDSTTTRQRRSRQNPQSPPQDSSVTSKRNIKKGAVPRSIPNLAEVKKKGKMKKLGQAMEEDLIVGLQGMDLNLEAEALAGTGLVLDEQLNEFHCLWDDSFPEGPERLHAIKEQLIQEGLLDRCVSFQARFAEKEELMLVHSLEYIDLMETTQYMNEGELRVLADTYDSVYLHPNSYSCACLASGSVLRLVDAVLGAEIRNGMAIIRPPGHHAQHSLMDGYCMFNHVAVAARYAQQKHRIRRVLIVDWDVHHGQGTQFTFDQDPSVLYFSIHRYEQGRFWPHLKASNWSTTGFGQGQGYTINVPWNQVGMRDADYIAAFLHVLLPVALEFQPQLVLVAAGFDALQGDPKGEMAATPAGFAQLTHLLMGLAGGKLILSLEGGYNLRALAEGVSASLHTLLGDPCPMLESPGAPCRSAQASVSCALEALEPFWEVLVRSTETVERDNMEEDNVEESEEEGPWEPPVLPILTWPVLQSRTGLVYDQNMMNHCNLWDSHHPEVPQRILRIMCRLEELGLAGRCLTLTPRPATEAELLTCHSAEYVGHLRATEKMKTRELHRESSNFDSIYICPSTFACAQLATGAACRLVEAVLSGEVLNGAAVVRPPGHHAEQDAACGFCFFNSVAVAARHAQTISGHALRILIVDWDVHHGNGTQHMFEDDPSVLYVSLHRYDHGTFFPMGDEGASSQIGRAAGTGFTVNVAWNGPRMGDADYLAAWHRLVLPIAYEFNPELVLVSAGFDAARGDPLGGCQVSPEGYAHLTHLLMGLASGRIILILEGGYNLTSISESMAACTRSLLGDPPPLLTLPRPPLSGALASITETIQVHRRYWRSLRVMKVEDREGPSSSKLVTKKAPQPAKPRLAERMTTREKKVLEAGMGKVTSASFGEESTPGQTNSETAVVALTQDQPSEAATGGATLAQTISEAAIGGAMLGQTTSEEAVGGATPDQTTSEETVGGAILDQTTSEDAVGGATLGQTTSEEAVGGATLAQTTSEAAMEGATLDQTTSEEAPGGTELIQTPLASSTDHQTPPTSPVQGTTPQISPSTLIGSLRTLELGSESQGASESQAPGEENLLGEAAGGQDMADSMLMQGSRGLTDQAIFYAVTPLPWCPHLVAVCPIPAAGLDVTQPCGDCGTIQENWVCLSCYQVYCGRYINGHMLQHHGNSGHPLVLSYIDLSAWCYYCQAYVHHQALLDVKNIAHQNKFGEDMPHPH
The test can be described thus: HDAC6 enzyme activity inhibition assay (HDAC Fluorimetric Drug Discovery Kit). The test is classed as biochemical. The note with it: for HDAC6 selectivity (fold): HDAC6 over HDAC1; for pIC50: human recombinant HDAC6, same protocol as HDAC1, read-out: HDAC6. In short, it runs like this: as §1

SMILES strings stand for the structures. pIC50: −log10 of the molar value.

T1 sequence (Q13547 whole entry): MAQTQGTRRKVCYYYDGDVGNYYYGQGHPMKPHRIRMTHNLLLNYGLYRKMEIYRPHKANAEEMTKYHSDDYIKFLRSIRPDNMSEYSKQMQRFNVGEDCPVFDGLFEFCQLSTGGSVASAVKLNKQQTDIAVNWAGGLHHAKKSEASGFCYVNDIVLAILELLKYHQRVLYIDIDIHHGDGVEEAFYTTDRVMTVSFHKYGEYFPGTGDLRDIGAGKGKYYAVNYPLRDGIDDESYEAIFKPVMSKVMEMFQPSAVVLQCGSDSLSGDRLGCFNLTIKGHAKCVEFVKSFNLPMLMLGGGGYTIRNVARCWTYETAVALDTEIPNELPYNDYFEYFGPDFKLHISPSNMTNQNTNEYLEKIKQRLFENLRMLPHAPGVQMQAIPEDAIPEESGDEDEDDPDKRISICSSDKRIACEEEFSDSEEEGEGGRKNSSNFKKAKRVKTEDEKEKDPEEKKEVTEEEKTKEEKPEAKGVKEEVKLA

Take `O=C(N1CCS(=O)(=O)CC1)N(Cc1ccc(-c2nnc(C(F)F)o2)cc1F)c1cccc(Cl)c1` [Compound 21810, N-(3-chlorophenyl)-N-(4-(5-(difluoromethyl)-1,3,4-oxadiazol-2-yl)-2-fluorobenzyl)thiomorpholine-4-carboxamide 1,1-dioxide]: the pIC50 was 4.80 on human recombinant HDAC1 and 7.74 at human recombinant HDAC6. Moreover, on human recombinant HDAC6, the “HDAC6 selectivity (fold)” value stood at 883 fold.

With `O=C(N1CCS(=O)(=O)CC1)N(Cc1ccc(-c2nnc(C(F)F)o2)cn1)c1ccc(-c2ccncc2)cc1` [Compound 21823, N-((5-(5-(difluoromethyl)-1,3,4-oxadiazol-2-yl)pyridin-2-yl)methyl)-N-(4-(pyridin-4-yl)phenyl)thiomorpholine-4-carboxamide 1,1-dioxide], the pIC50 is 4.68 on human recombinant HDAC1 and 7.25 at human recombinant HDAC6. Besides, on human recombinant HDAC6, the “HDAC6 selectivity (fold)” value came to 370 fold.

With `O=C(N1CCS(=O)(=O)CC1)N(Cc1ccc(-c2nnc(C(F)F)o2)cn1)c1ccc(-c2cccnc2)cc1` [Compound 21824, N-((5-(5-(difluoromethyl)-1,3,4-oxadiazol-2-yl)pyridin-2-yl)methyl)-N-(4-(pyridin-3-yl)phenyl)thiomorpholine-4-carboxamide 1,1-dioxide], the pIC50 at human recombinant HDAC1 is 4.75. Also, at human recombinant HDAC6, the “HDAC6 selectivity (fold)” value turned out to be 563 fold and the pIC50 was 7.51.

For `O=C(N1CCS(=O)(=O)CC1)N(Cc1ccc(-c2nnc(C(F)F)o2)cn1)c1ccc(F)cc1` [Compound 21829, N-((5-(5-(difluoromethyl)-1,3,4-oxadiazol-2-yl)pyridin-2-yl)methyl)-N-(4-fluorophenyl)thiomorpholine-4-carboxamide 1,1-dioxide], the pIC50 at human recombinant HDAC1 was 4.33; at human recombinant HDAC6, 7.51. Further, the “HDAC6 selectivity (fold)” value on human recombinant HDAC6 worked out at 1542 fold.

`O=C(N1CCS(=O)(=O)CC1)N(Cc1ccc(-c2nnc(C(F)F)o2)cn1)c1cccc(F)c1` [Compound 21830, N-((5-(5-(difluoromethyl)-1,3,4-oxadiazol-2-yl)pyridin-2-yl)methyl)-N-(3-fluorophenyl)thiomorpholine-4-carboxamide 1,1-dioxide]: the pIC50 at human recombinant HDAC1 is 4.39; at human recombinant HDAC6 it was 7.49. Besides, at human recombinant HDAC6, the “HDAC6 selectivity (fold)” value was determined as 1298 fold.

As to `O=C(N1CCS(=O)(=O)CC1)N(Cc1ccc(-c2nnc(C(F)F)o2)cn1)c1ccc(Cl)cc1` [Compound 21831, N-(4-chlorophenyl)-N-((5-(5-(difluoromethyl)-1,3,4-oxadiazol-2-yl)pyridin-2-yl)methyl)thiomorpholine-4-carboxamide 1,1-dioxide], the pIC50 at human recombinant HDAC1 is 4.19; at human recombinant HDAC6, 7.38. Besides, the “HDAC6 selectivity (fold)” value on human recombinant HDAC6 was 1538 fold.

`O=C(N1CCOCC1)N(Cc1ccc(-c2nnc(C(F)F)o2)cn1)c1ccc(F)cc1` [Compound 21839, N-((5-(5-(difluoromethyl)-1,3,4-oxadiazol-2-yl)pyridin-2-yl)methyl)-N-(4-fluorophenyl) morpholine-4-carboxamide]: at human recombinant HDAC1, the pIC50 was 4.25. Moreover, on human recombinant HDAC6, the “HDAC6 selectivity (fold)” value turned out to be 1689 fold and the pIC50 was 7.47.

Turning to `O=C(N1CCOCC1)N(Cc1ccc(-c2nnc(C(F)(F)F)o2)cn1)c1ccc(F)cc1` [Compound 21840, N-(4-fluorophenyl)-N-((5-(5-(trifluoromethyl)-1,3,4-oxadiazol-2-yl)pyridin-2-yl)methyl) morpholine-4-carboxamide], the pIC50 on human recombinant HDAC1 was 4.50. Besides, on human recombinant HDAC6, the “HDAC6 selectivity (fold)” value is 170 fold and the pIC50 is 6.73.

For `O=C(N1CCOCC1)N(Cc1ccc(-c2nnc(C(F)(F)F)o2)cc1F)c1ccc(F)cc1` [Compound 21842, N-(2-fluoro-4-(5-(trifluoromethyl)-1,3,4-oxadiazol-2-yl)benzyl)-N-(4-fluorophenyl)morpholine-4-carboxamide], at human recombinant HDAC1, the pIC50 was 4.60. Also, at human recombinant HDAC6, the “HDAC6 selectivity (fold)” value was 135 fold and the pIC50 was 6.73.

Consider `O=C(N1CCOCC1)N(Cc1ccc(-c2nnc(C(F)(F)F)o2)cn1)c1cccc(F)c1` [Compound 21844, N-(3-fluorophenyl)-N-((5-(5-(trifluoromethyl)-1,3,4-oxadiazol-2-yl)pyridin-2-yl)methyl) morpholine-4-carboxamide], for which, at human recombinant HDAC1, the pIC50 was 4.49. Also, at human recombinant HDAC6, the “HDAC6 selectivity (fold)” value is 404 fold and the pIC50 is 7.10.

As for `O=C(N1CCOCC1)N(Cc1ccc(-c2nnc(C(F)F)o2)cc1F)c1cccc(F)c1` [Compound 21845, N-(4-(5-(difluoromethyl)-1,3,4-oxadiazol-2-yl)-2-fluorobenzyl)-N-(3-fluorophenyl)morpholine-4-carboxamide], the pIC50 on human recombinant HDAC1 was 4.21. Moreover, at human recombinant HDAC6, the “HDAC6 selectivity (fold)” value was 1919 fold and the pIC50 was 7.49.

For `O=C(N1CCOCC1)N(Cc1ccc(-c2nnc(C(F)(F)F)o2)cc1F)c1cccc(F)c1` [Compound 21846, N-(2-fluoro-4-(5-(trifluoromethyl)-1,3,4-oxadiazol-2-yl)benzyl)-N-(3-fluorophenyl)morpholine-4-carboxamide], the pIC50 on human recombinant HDAC1 was 4.67; on human recombinant HDAC6 it was 6.91. Besides, the “HDAC6 selectivity (fold)” value on human recombinant HDAC6 was determined as 173 fold.

As for `O=C(N1CCOCC1)N(Cc1ccc(-c2nnc(C(F)F)o2)cn1)c1ccc(Cl)cc1` [Compound 21847, N-(4-chlorophenyl)-N-((5-(5-(difluoromethyl)-1,3,4-oxadiazol-2-yl)pyridin-2-yl)methyl) morpholine-4-carboxamide], the pIC50 on human recombinant HDAC1 is 4.15. On human recombinant HDAC6, the “HDAC6 selectivity (fold)” value is listed as 1811 fold and the pIC50 is 7.41.

On to `O=C(N1CCOCC1)N(Cc1ccc(-c2nnc(C(F)(F)F)o2)cn1)c1ccc(Cl)cc1` [Compound 21848, N-(4-chlorophenyl)-N-((5-(5-(trifluoromethyl)-1,3,4-oxadiazol-2-yl)pyridin-2-yl)methyl) morpholine-4-carboxamide], for which the pIC50 on human recombinant HDAC1 is 4.38. Besides, on human recombinant HDAC6, the “HDAC6 selectivity (fold)” value is 161 fold and the pIC50 is 6.58.

For `O=C(N1CCOCC1)N(Cc1ccc(-c2nnc(C(F)(F)F)o2)cc1F)c1ccc(Cl)cc1` [Compound 21850, N-(4-chlorophenyl)-N-(2-fluoro-4-(5-(trifluoromethyl)-1,3,4-oxadiazol-2-yl)benzyl)morpholine-4-carboxamide], the pIC50 at human recombinant HDAC1 is 4.16; at human recombinant HDAC6 it was 6.36. Further, the “HDAC6 selectivity (fold)” value on human recombinant HDAC6 is recorded as 157 fold.

Turning to `O=C(N1CCOCC1)N(Cc1ccc(-c2nnc(C(F)(F)F)o2)cn1)c1cccc(Cl)c1` [Compound 21852, N-(3-chlorophenyl)-N-((5-(5-(trifluoromethyl)-1,3,4-oxadiazol-2-yl)pyridin-2-yl)methyl) morpholine-4-carboxamide], the pIC50 is 4.81 on human recombinant HDAC1 and 6.88 at human recombinant HDAC6. For the same compound, the “HDAC6 selectivity (fold)” value on human recombinant HDAC6 was determined as 118 fold.

As to `O=C(N1CCOCC1)N(Cc1ccc(-c2nnc(C(F)F)o2)cc1F)c1cccc(Cl)c1` [Compound 21853, N-(3-chlorophenyl)-N-(4-(5-(difluoromethyl)-1,3,4-oxadiazol-2-yl)-2-fluorobenzyl)morpholine-4-carboxamide], the pIC50 at human recombinant HDAC1 was 4.54; on human recombinant HDAC6, 7.28. Moreover, the “HDAC6 selectivity (fold)” value on human recombinant HDAC6 amounted to 540 fold.

`O=C(N1CCOCC1)N(Cc1ccc(-c2nnc(C(F)(F)F)o2)cc1F)c1cccc(Cl)c1` [Compound 21854, N-(3-chlorophenyl)-N-(2-fluoro-4-(5-(trifluoromethyl)-1,3,4-oxadiazol-2-yl)benzyl)morpholine-4-carboxamide]: the pIC50 on human recombinant HDAC1 is 4.90. Further, at human recombinant HDAC6, the “HDAC6 selectivity (fold)” value is 46 fold and the pIC50 is 6.56.

As for `O=C(N1CCOCC1)N(Cc1ccc(-c2nnc(C(F)(F)F)o2)cn1)c1ccc(F)cc1F` [Compound 21857, N-(2,4-difluorophenyl)-N-((5-(5-(trifluoromethyl)-1,3,4-oxadiazol-2-yl)pyridin-2-yl)methyl)morpholine-4-carboxamide], the pIC50 at human recombinant HDAC1 is 4.62. Also, on human recombinant HDAC6, the “HDAC6 selectivity (fold)” value is recorded as 182 fold and the pIC50 was 6.88.
